Measured values taken from PubChem BioAssay (NCI).
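Where inhibition never reached the appropriate level, the endpoint shown equals the highest concentration tested. Otherwise, values were interpolated linearly from a five-concentration, 48-hour dose response in 96-well plates. GI50 = concentration required for 50% inhibition of growth. TGI marks complete inhibition of growth.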

Experiments:
Assay in all cases: NCI anticancer screen, dose series, 48 h
NCI-H522 lung = tested on: NCI-H522 lung
HS 578T breast = tested on: HS 578T breast
HL-60(TB) leukemia = tested on: HL-60(TB) leukemia
KM12 colon = tested on: KM12 colon
HCC-2998 colon = tested on: HCC-2998 colon
T-47D breast = tested on: T-47D breast
MOLT-4 leukemia = tested on: MOLT-4 leukemia
SR leukemia = tested on: SR leukemia
BT-549 breast = tested on: BT-549 breast
HOP-62 NSCLC = tested on: HOP-62 NSCLC
M14 melanoma = tested on: M14 melanoma
SK-OV-3 ovarian = tested on: SK-OV-3 ovarian
EKVX NSCLC = tested on: EKVX NSCLC
UACC-62 melanoma = tested on: UACC-62 melanoma
MDA-MB-468 breast = tested on: MDA-MB-468 breast
PC-3 prostate = tested on: PC-3 prostate
MDA-MB-231 breast = tested on: MDA-MB-231 breast
ACHN renal = tested on: ACHN renal
OVCAR-5 ovarian = tested on: OVCAR-5 ovarian
SN12C renal = tested on: SN12C renal
HCT-116 colon = tested on: HCT-116 colon
DU-145 prostate = tested on: DU-145 prostate
UO-31 renal = tested on: UO-31 renal
IGROV1 ovarian = tested on: IGROV1 ovarian
A549 NSCLC = tested on: A549 NSCLC
SK-MEL-2 melanoma = tested on: SK-MEL-2 melanoma
OVCAR-3 ovarian = tested on: OVCAR-3 ovarian
A498 renal = tested on: A498 renal
SW-620 colon = tested on: SW-620 colon
SK-MEL-5 melanoma = tested on: SK-MEL-5 melanoma
NCI-H23 lung = tested on: NCI-H23 lung
U251 CNS = tested on: U251 CNS
MDA-MB-435 = tested on: MDA-MB-435
SF-539 CNS = tested on: SF-539 CNS
786-0 renal = tested on: 786-0 renal
SF-295 CNS = tested on: SF-295 CNS
OVCAR-8 ovarian = tested on: OVCAR-8 ovarian
SK-MEL-28 melanoma = tested on: SK-MEL-28 melanoma
SNB-75 CNS = tested on: SNB-75 CNS
COLO 205 colon = tested on: COLO 205 colon
HCT-15 colon = tested on: HCT-15 colon
NCI-H460 lung = tested on: NCI-H460 lung
LOX IMVI melanoma = tested on: LOX IMVI melanoma
NCI-H226 lung = tested on: NCI-H226 lung
SF-268 CNS = tested on: SF-268 CNS
K-562 leukemia = tested on: K-562 leukemia
SNB-19 CNS = tested on: SNB-19 CNS
CAKI-1 renal = tested on: CAKI-1 renal
HT29 colon = tested on: HT29 colon
MCF7 breast = tested on: MCF7 breast
MALME-3M melanoma = tested on: MALME-3M melanoma
HOP-92 NSCLC = tested on: HOP-92 NSCLC
TK-10 renal = tested on: TK-10 renal
CCRF-CEM leukemia = tested on: CCRF-CEM leukemia
RPMI-8226 leukemia = tested on: RPMI-8226 leukemia
NCI/ADR-RES ovarian = tested on: NCI/ADR-RES ovarian
UACC-257 melanoma = tested on: UACC-257 melanoma
RXF 393 renal = tested on: RXF 393 renal

For `O=C(CS(=O)(=O)c1oc(-c2ccc(Cl)cc2)nc1S(=O)(=O)c1ccccc1)N1CCCC1`, the GI50 (NCI-H522 lung) was 1.11 µM, the TGI (NCI-H522 lung) was 2.53 µM and the GI50 (HS 578T breast) was 7.21 µM. For the same compound, the TGI (HS 578T breast) was 53.9 µM, the GI50 (HL-60(TB) leukemia) was 1.31 µM and the TGI (HL-60(TB) leukemia) was > 100 µM. For the same compound, the GI50 (KM12 colon) was 16.8 µM, the TGI (KM12 colon) was 33 µM and the GI50 (HCC-2998 colon) was 14.5 µM. For the same compound, the TGI (HCC-2998 colon) was 28.7 µM, the GI50 (T-47D breast) was 1.8 µM and the TGI (T-47D breast) was 4.47 µM. For the same compound, the GI50 (MOLT-4 leukemia) was 2.38 µM, the TGI (MOLT-4 leukemia) was > 100 µM and the GI50 (SR leukemia) was 2.6 µM. The TGI (SR leukemia) was > 100 µM, the GI50 (BT-549 breast) was 1.88 µM and the TGI (BT-549 breast) was 3.48 µM. For the same compound, the GI50 (HOP-62 NSCLC) was 17.8 µM, the TGI (HOP-62 NSCLC) was 34 µM and the GI50 (M14 melanoma) was 1.88 µM. The TGI (M14 melanoma) was 4.07 µM, the GI50 (SK-OV-3 ovarian) was 18 µM and the TGI (SK-OV-3 ovarian) was 33 µM. For the same compound, the GI50 (EKVX NSCLC) was 2.03 µM, the TGI (EKVX NSCLC) was 4.9 µM and the GI50 (UACC-62 melanoma) was 3.35 µM. It also gave a TGI (UACC-62 melanoma) of 13.6 µM, a GI50 (MDA-MB-468 breast) of 1.08 µM and a TGI (MDA-MB-468 breast) of 2.49 µM. For the same compound, the GI50 (PC-3 prostate) was 9.59 µM, the TGI (PC-3 prostate) was 27.5 µM and the GI50 (MDA-MB-231 breast) was 1.71 µM. It also gave a TGI (MDA-MB-231 breast) of 3.1 µM, a GI50 (ACHN renal) of 1.52 µM and a TGI (ACHN renal) of 2.85 µM. For the same compound, the GI50 (OVCAR-5 ovarian) was 13.7 µM, the TGI (OVCAR-5 ovarian) was 27.4 µM and the GI50 (SN12C renal) was 12 µM. For the same compound, the TGI (SN12C renal) was 24.9 µM, the GI50 (HCT-116 colon) was 1.81 µM and the TGI (HCT-116 colon) was 4.07 µM. The GI50 (DU-145 prostate) was 1.76 µM, the TGI (DU-145 prostate) was 3.37 µM and the GI50 (UO-31 renal) was 1.54 µM. For the same compound, the TGI (UO-31 renal) was 2.96 µM, the GI50 (IGROV1 ovarian) was 13.1 µM and the TGI (IGROV1 ovarian) was 29.3 µM. The GI50 (A549 NSCLC) was 14.3 µM, the TGI (A549 NSCLC) was 31.6 µM and the GI50 (SK-MEL-2 melanoma) was 15 µM. For the same compound, the TGI (SK-MEL-2 melanoma) was 29 µM, the GI50 (OVCAR-3 ovarian) was 1.29 µM and the TGI (OVCAR-3 ovarian) was 2.71 µM. For the same compound, the GI50 (A498 renal) was 14.2 µM, the TGI (A498 renal) was 27.3 µM and the GI50 (SW-620 colon) was 1.06 µM. It also gave a TGI (SW-620 colon) of 2.41 µM, a GI50 (SK-MEL-5 melanoma) of 14.3 µM and a TGI (SK-MEL-5 melanoma) of 27.6 µM. It also gave a GI50 (NCI-H23 lung) of 11.4 µM, a TGI (NCI-H23 lung) of 26.8 µM and a GI50 (U251 CNS) of 15.9 µM. It also gave a TGI (U251 CNS) of 29.8 µM, a GI50 (MDA-MB-435) of 2.88 µM and a TGI (MDA-MB-435) of 13.6 µM. For the same compound, the GI50 (SF-539 CNS) was 1.64 µM, the TGI (SF-539 CNS) was 2.99 µM and the GI50 (786-0 renal) was 1.51 µM. For the same compound, the TGI (786-0 renal) was 3.01 µM, the GI50 (SF-295 CNS) was 13.4 µM and the TGI (SF-295 CNS) was 26.8 µM. For the same compound, the GI50 (OVCAR-8 ovarian) was 11.2 µM, the TGI (OVCAR-8 ovarian) was 33.2 µM and the GI50 (SK-MEL-28 melanoma) was 3.58 µM. For the same compound, the TGI (SK-MEL-28 melanoma) was 12.5 µM, the GI50 (SNB-75 CNS) was 10.1 µM and the TGI (SNB-75 CNS) was 23 µM. It also gave a GI50 (COLO 205 colon) of 2.14 µM, a TGI (COLO 205 colon) of 4.68 µM and a GI50 (HCT-15 colon) of 1.43 µM. For the same compound, the TGI (HCT-15 colon) was 2.99 µM, the GI50 (NCI-H460 lung) was 12.3 µM and the TGI (NCI-H460 lung) was 26.3 µM. The GI50 (LOX IMVI melanoma) was 1.49 µM, the TGI (LOX IMVI melanoma) was 2.86 µM and the GI50 (NCI-H226 lung) was 15.1 µM. For the same compound, the TGI (NCI-H226 lung) was 39 µM, the GI50 (SF-268 CNS) was 14.9 µM and the TGI (SF-268 CNS) was 43.2 µM. For the same compound, the GI50 (K-562 leukemia) was 0.707 µM, the TGI (K-562 leukemia) was > 100 µM and the GI50 (SNB-19 CNS) was 16 µM. The TGI (SNB-19 CNS) was 30.5 µM, the GI50 (CAKI-1 renal) was 1.41 µM and the TGI (CAKI-1 renal) was 2.75 µM. The GI50 (HT29 colon) was 2.07 µM, the TGI (HT29 colon) was 5.07 µM and the GI50 (MCF7 breast) was 1.47 µM. It also gave a TGI (MCF7 breast) of 3.34 µM, a GI50 (MALME-3M melanoma) of 1.69 µM and a TGI (MALME-3M melanoma) of 3.09 µM. For the same compound, the GI50 (HOP-92 NSCLC) was 2.38 µM, the TGI (HOP-92 NSCLC) was 4.68 µM and the GI50 (TK-10 renal) was 1.75 µM. It also gave a TGI (TK-10 renal) of 3.19 µM, a GI50 (CCRF-CEM leukemia) of 0.4 µM and a TGI (CCRF-CEM leukemia) of 2.36 µM. For the same compound, the GI50 (RPMI-8226 leukemia) was 2.99 µM, the TGI (RPMI-8226 leukemia) was > 100 µM and the GI50 (NCI/ADR-RES ovarian) was 15.9 µM. It also gave a TGI (NCI/ADR-RES ovarian) of 70.5 µM, a GI50 (UACC-257 melanoma) of 1.88 µM and a TGI (UACC-257 melanoma) of 3.62 µM. The GI50 (RXF 393 renal) was 1.36 µM and the TGI (RXF 393 renal) was 2.79 µM.
